Measurements as given in US20170239289A1, “TREATMENT OF INFLAMMATION, RESPIRATORY TRACT INFECTIONS AND CYSTIC FIBROSIS” (Advanced Inhalation Therapies (AIT) Ltd., priority 2014, published 2017).
“And” between values parts separate entries of the source, which are not always exact repeats. Equal values may be shown once.

Test system: human subjects diagnosed with acute bronchiolitis
Assay: Example 3: randomized bronchiolitis study, infants 2-12 months; 160 ppm NO 30 min 5x daily up to 5 days plus O2 vs O2 alone; efficacy
Assay type: in vivo
Excerpt: Eligible subjects were randomized (1:1) to receive intermittent NO and standard treatment with O2 (hereafter referred to as NO treatment) or standard treatment with O2 (hereafter referred to as standard treatment) alone for a treatment period of up to 5 days. During treatment, MetHb and O2 saturation levels were continuously monitored using a dedicated monitor.
In addition to standard supportive O2 treatment which was initiated prior to randomization, subjects in the NO group were given five 30 minute inhalations per day of 160 ppm NO, at intervals of 3 to 4 hours, until subject improvement led to a physician decision of fit to discharge, to a maximum of 25 inhalations over 5 consecutive days. Inhalations were administered via hospital face masks (Hospiltak, Unomedical Inc).
All subjects in the control group were managed with standard supportive O2 treatment in the same way as the active treatment group, but without actual NO administration.
Secondary Endpoints—Efficacy: • LOS in hours, measured as time from first inhalation treatment to “fit to discharge” • Time to reach 92% O2 saturation (in room air) measured as time from first inhalation treatment to first O2 saturation of 92% sustained to discharge • Time to clinical score of less than or equal to 5 measured as time from first inhalation treatment to clinical score of less than or equal to 5
The following analysis sets were defined for analysis of safety and efficacy: • Intent-to-treat (ITT): Defined as all randomized subjects who received at least one study treatment. This was the main set for analysis of efficacy and safety. • Per-Protocol (PP): Defined as all subjects in the ITT cohort who completed study treatment in compliance with the protocol (i.e., excludes all early termination subjects) and who had no major protocol violations. This was a secondary set for analysis of efficacy.
An additional set for analysis of efficacy was defined post-hoc: • Modified Intent-to-treat (mITT): Defined as all subjects in the ITT, excluding subjects who were prematurely discontinued from treatment and/or or discontinued from the study according to protocol guidelines.
Length of hospitalization stay (LOS) was calculated in hours from the first inhalation treatment to “fit to discharge” defined as physician decision to discharge.
Time to achieve O2 saturation of 92% (improvement) leading to discharge was calculated from first treatment to the first time of O2 saturation of at least 92% before discharge. Time was taken from the clinical score assessments where applicable and from subject daily chart in special circumstances.
Time to clinical score of less than or equal to 5 was calculated from first inhalation to the first time the subject reached a clinical score of less than or equal to 5.
Survival Analysis using a Kaplan-Meier survival function curve was applied for testing the statistical significance of the difference between the study groups in the following endpoints: • LOS, from first inhalation to fit to discharge • Time to achieve 92% Saturation leading to discharge • Time to achieve clinical score less than or equal to 5
The Cox model was applied for comparative analysis of Kaplan-Meier curves. The hazards ratio was estimated via the Cox's regression model.
Post-hoc subgroup analyses of subjects with a LOS less than or equal to 24 hours and greater than 24 hours were also conducted for the key post-hoc secondary endpoints. Additional exploratory analyses were also conducted on a subgroups with LOS greater than 36 hours and a subgroup of the 10 most severe subjects (i.e., longest LOS) from each treatment group. These post-hoc analyses were conducted for the following reasons: • Based on preclinical studies, the anti-viral/anti-microbial treatment effect of NO is expected to take at least 24 hours (i.e., 2.5 treatment hours). • Approximately ⅓ of subjects were discharged after less than 24 hours in hospital. […]

[1] = mITT, 10 most severe subjects from each group
[2] = mITT, LOS greater than 24 hours
[3] = mITT, LOS greater than 36 hours

[N]=O [NO, nitric oxide]
Hazard ratio, time to sustained 92% O2 saturation (ITT (N=42), NO vs standard treatment, 95% CI: 0.392, 1.361): 0.731
Hazard ratio, time to clinical score less than or equal to 5 (ITT (N=43), NO vs standard treatment, 95% CI: 0.378, 1.404): 0.728
Hazard ratio, LOS (Kaplan-Meier/Cox) (ITT (N=43), NO vs standard treatment, 95% CI: 0.435, 1.518): 0.812
Time to first 92% O2 saturation sustained to discharge, Mean (SD) (ITT, All (N = 42)): 35.50 (33.73) hours and 35.50 hours
Time to first 92% O2 saturation sustained to discharge, Median (ITT, All (N = 42)): 21.08 h
LOS, hours Mean (SD) (ITT, All (N = 43)): 43.34 (32.95) hours and 43.34 hours
LOS, hours Median (ITT, All (N = 43)): 40.03 h
Time to Clinical Score ≦5, Mean (SD) (ITT, All (N = 43)): 32.83 (30.61) hours and 32.83 hours
Time to Clinical Score ≦5, Median (ITT, All (N = 43)): 21.08 h
LOS, hours Mean (SD) (ITT, LOS >24 hours (N = 27)): 53.27 h
LOS, hours Median (ITT, LOS >24 hours (N = 27)): 41.92 h
Time to Clinical Score ≦5, Mean (SD) (ITT, LOS >24 hours (N = 27)): 39.62 h
Time to Clinical Score ≦5, Median (ITT, LOS >24 hours (N = 27)): 39.92 h
Time to first 92% O2 saturation sustained to discharge, Mean (SD) (ITT, LOS >24 hours (N = 27)): 43.35 h
Time to first 92% O2 saturation sustained to discharge, Median (ITT, LOS >24 hours (N = 27)): 41.17 h
Hazard ratio, time to clinical score less than or equal to 5 (ITT, LOS greater than 24 hours, 95% CI: 0.161, 0.949): 0.391
Hazard ratio, LOS (Kaplan-Meier/Cox) (ITT, LOS greater than 24 hours, 95% CI: 0.211, 1.091): 0.480
Hazard ratio, time to sustained 92% O2 saturation (ITT, LOS greater than 24 hours, 95% CI: 0.232, 1.145): 0.515
Time to first 92% O2 saturation sustained to discharge, Mean (SD) (ITT, LOS ≦24 hours (N = 15)): 15.86 h
Time to first 92% O2 saturation sustained to discharge, Median (ITT, LOS ≦24 hours (N = 15)): 16.78 h
LOS, hours Mean (SD) (ITT, LOS ≦24 hours (N = 16)): 18.52 h
LOS, hours Median (ITT, LOS ≦24 hours (N = 16)): 18.50 h
Time to Clinical Score ≦5, Mean (SD) (ITT, LOS ≦24 hours (N = 16)): 15.86 h
Time to Clinical Score ≦5, Median (ITT, LOS ≦24 hours (N = 16)): 16.78 h
Hazard ratio, time to sustained 92% O2 saturation (PP (N=38), 95% CI: 0.334, 1.302): 0.660
Hazard ratio, time to clinical score less than or equal to 5 (PP (N=39), 95% CI: 0.332, 1.324): 0.663
Hazard ratio, LOS (Kaplan-Meier/Cox) (PP (N=39), 95% CI: 0.444, 1.688): 0.866
Time to first 92% O2 saturation sustained to discharge, Mean (SD) (PP, All (N = 38)): 30.17 (21.06) hours and 30.17 hours
Time to first 92% O2 saturation sustained to discharge, Median (PP, All (N = 38)): 21.08 h
LOS, hours Mean (SD) (PP, All (N = 39)): 38.79 (21.52) hours and 38.79 hours
LOS, hours Median (PP, All (N = 39)): 40.03 h
Time to Clinical Score ≦5, Mean (SD) (PP, All (N = 39)): 27.18 (13.17) hours and 27.18 hours
Time to Clinical Score ≦5, Median (PP, All (N = 39)): 21.08 h
LOS, hours Mean (SD) (PP, LOS >24 hours (N = 24)): 46.03 h
LOS, hours Median (PP, LOS >24 hours (N = 24)): 41.83 h
Time to Clinical Score ≦5, Mean (SD) (PP, LOS >24 hours (N = 24)): 31.41 h
Time to Clinical Score ≦5, Median (PP, LOS >24 hours (N = 24)): 34.92 h
Time to first 92% O2 saturation sustained to discharge, Mean (SD) (PP, LOS >24 hours (N = 24)): 35.47 h
Time to first 92% O2 saturation sustained to discharge, Median (PP, LOS >24 hours (N = 24)): 38.98 h
Hazard ratio, time to clinical score less than or equal to 5 (PP, LOS greater than 24 hours, 95% CI: 0.093, 0.799): 0.273
Hazard ratio, time to sustained 92% O2 saturation (PP, LOS greater than 24 hours, 95% CI: 0.139, 0.921): 0.358
Hazard ratio, LOS (Kaplan-Meier/Cox) (PP, LOS greater than 24 hours, 95% CI: 0.164, 1.062): 0.418
Time to first 92% O2 saturation sustained to discharge, Mean (SD) (PP, LOS ≦24 hours (N = 14)): 15.32 h
Time to first 92% O2 saturation sustained to discharge, Median (PP, LOS ≦24 hours (N = 14)): 16.75 h
LOS, hours Mean (SD) (PP, LOS ≦24 hours (N = 15)): 18.50 h
LOS, hours Median (PP, LOS ≦24 hours (N = 15)): 18.42 h
Time to Clinical Score ≦5, Mean (SD) (PP, LOS ≦24 hours (N = 15)): 15.32 h
Time to Clinical Score ≦5, Median (PP, LOS ≦24 hours (N = 15)): 16.75 h
median time to clinical score less than or equal to 5 (mITT, 10 most severe subjects (based on LOS) from each group): 41.56 h
median LOS [1]: 42.14 h
median time to 92% O2 saturation sustained to discharge [1]: 41.59 h
median time to clinical score less than or equal to 5 [2]: 34.92 h
median time to first 92% O2 saturation sustained to discharge [2]: 38.98 h
median LOS (mITT, LOS greater than 24 hours (N=25)): 41.83 h
Hazard ratio, time to clinical score less than or equal to 5 (mITT, LOS greater than 24 hours, 95% CI: 0.081, 0.699): 0.238
Hazard ratio, time to sustained 92% O2 saturation (mITT, LOS greater than 24 hours, 95% CI: 0.119, 0.797): 0.308
Hazard ratio, LOS (Kaplan-Meier/Cox) (mITT, LOS greater than 24 hours, 95% CI: 0.140, 0.913): 0.357
median LOS [3]: 41.92 h
median time to 92% O2 saturation sustained to discharge [3]: 41.37 h
median time to clinical score less than or equal to 5 [3]: 41.37 h
